Test [1] deals with Streptococcus sp. 'group A'. Briefly: Streptococcus pyogenes SK(-)GAS viability under kanamycin – luminescence, BacTiterGlo, confirmation, counter-screen for streptokinase expression inhibitor project, dose response (AID 1900). It is filed as functional, organism-based. In general terms: The purpose of a counterscreen is to sort out artefacts and off-target activity.
The next test has as its target T1, Streptokinase A (Streptococcus pyogenes serotype M1, UniProt P10520).
T1 sequence (P10520 whole entry): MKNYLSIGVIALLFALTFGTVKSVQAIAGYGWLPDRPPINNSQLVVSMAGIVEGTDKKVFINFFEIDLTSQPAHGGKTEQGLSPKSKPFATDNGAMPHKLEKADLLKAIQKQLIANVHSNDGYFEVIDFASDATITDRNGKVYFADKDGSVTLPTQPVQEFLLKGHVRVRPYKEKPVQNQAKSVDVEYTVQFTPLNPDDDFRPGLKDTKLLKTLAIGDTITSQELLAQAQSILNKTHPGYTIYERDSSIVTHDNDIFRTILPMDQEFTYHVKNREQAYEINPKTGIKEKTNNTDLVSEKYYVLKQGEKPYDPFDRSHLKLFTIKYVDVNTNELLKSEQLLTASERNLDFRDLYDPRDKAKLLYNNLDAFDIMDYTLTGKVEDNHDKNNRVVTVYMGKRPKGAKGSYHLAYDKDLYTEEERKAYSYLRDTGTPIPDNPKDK
The test is described as follows: viability-normalized secreted streptokinase activity reduction – plasminogen activation absorbance, OD405, dose response (AID 1914).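 Note: secreted streptokinase activity via plasminogen activation per viability signal from cell pellet.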 It is filed as functional, Streptococcus pyogenes M1 GAS.

The next test relates to Streptococcus. The test is described as follows: GAS UMAA2166 growth inhibition – luminescence, BacTiterGlo, counter-screen for streptokinase expression inhibitor project, dose response (AID 1915).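 Note: potency for reduction of bacterial viability or growth.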 Type of test: functional, organism-based.
Test [2] is described as follows: reduction of Shn3 3'UTR-driven luciferase in osteoblasts – cell-based, Clone20 osteoblasts, firefly luciferase, cherry-picked, dose response (AID 624132).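 Note: firefly luciferase luminescence from reporter carrying the Shn3 3'UTR in osteoblasts.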 It is filed as functional.
A short description of test [3]: loss of viability in HepG2 cells – cell-based, CellTiter-Glo, cherry-picked, cytotoxicity control for Shn3 inhibitor project, dose response (AID 624134). It is filed as functional. (In general: In ATP-based viability assays light output follows the ATP content of the culture.)
Test [4] in a line: non-specific 3'UTR reporter inhibition in Clone20-Shn3RL – cell-based, Renilla luciferase, cherry-picked, counter-screen for Shn3 inhibitor project, dose response (AID 624133). It is filed as functional.
The target of test [5] is T2, Fatty acid synthase (Homo sapiens, UniProt P49327). Briefly: inhibition of human FAS-TE enzyme activity – biochemical, endpoint fluorescence intensity, uHTS hits, dose response (AID 624327).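 Note: fluorescence from hydrolysis of an O-methyl fluorescein acyl ester substrate by the enzyme.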 Type of test: functional.
T2 sequence (P49327 whole entry): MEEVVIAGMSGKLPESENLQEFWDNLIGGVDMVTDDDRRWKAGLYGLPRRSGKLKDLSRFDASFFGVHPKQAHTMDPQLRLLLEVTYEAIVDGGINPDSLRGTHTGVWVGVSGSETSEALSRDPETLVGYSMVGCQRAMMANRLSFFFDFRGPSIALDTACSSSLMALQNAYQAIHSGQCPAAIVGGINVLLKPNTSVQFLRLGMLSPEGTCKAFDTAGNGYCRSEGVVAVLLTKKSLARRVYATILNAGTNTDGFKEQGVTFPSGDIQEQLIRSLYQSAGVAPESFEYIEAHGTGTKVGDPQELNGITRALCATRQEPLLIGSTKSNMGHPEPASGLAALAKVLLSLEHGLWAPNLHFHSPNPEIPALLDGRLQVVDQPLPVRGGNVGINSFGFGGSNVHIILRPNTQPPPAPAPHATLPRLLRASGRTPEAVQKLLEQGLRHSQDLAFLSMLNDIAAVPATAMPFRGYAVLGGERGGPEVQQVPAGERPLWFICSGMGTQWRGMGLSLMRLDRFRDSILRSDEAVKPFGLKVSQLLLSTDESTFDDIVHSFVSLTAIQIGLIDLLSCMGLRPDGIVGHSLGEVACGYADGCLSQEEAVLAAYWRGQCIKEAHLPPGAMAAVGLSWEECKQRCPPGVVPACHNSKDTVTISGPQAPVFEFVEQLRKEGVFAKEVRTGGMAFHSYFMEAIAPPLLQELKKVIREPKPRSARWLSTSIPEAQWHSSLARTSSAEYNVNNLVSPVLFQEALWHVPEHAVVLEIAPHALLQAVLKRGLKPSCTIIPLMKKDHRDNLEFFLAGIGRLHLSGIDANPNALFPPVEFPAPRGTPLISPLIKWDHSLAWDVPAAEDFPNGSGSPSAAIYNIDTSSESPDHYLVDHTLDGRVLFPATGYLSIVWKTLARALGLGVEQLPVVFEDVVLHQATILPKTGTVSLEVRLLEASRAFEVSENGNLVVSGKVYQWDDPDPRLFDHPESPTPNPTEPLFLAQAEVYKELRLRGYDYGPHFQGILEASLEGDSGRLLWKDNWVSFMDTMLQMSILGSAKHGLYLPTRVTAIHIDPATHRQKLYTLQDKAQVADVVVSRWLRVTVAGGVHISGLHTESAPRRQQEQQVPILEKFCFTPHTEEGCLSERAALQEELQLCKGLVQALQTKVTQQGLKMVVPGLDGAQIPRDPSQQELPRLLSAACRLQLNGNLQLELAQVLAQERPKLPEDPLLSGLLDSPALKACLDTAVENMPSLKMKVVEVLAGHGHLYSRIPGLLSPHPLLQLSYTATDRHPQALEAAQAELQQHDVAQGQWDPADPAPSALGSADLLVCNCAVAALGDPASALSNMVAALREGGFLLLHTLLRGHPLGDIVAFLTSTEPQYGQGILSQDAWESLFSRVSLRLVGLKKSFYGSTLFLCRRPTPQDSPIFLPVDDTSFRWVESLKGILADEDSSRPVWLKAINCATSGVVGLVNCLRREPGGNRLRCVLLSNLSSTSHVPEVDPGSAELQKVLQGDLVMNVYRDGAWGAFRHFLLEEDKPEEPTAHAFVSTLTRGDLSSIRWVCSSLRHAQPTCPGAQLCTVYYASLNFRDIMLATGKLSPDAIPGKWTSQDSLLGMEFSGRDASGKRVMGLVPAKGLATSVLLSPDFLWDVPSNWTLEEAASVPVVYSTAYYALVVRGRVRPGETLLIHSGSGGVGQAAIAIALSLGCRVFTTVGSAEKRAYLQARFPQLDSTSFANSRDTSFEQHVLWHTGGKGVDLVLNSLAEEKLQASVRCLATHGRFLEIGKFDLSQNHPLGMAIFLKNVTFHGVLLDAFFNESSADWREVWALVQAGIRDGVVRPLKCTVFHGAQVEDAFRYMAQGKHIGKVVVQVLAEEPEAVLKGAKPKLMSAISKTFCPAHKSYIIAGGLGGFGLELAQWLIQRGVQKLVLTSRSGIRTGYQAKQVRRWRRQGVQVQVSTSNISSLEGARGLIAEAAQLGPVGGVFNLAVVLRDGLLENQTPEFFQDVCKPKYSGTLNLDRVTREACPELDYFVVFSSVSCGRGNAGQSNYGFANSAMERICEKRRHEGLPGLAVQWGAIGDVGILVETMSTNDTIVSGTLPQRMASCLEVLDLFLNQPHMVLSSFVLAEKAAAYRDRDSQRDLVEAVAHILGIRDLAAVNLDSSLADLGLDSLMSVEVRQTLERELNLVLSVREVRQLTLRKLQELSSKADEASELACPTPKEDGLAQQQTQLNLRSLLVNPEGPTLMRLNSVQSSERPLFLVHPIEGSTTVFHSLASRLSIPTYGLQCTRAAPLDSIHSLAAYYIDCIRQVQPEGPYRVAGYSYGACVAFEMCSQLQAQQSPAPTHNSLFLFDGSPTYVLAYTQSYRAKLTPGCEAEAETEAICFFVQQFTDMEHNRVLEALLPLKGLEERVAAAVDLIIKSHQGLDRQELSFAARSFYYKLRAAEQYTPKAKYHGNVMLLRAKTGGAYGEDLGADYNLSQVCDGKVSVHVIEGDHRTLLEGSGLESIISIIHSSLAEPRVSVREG
The target in test [6] is T2, Fatty acid synthase. The test is described as follows: inhibition of human FAS-TE enzyme activity – biochemical, kinetic fluorescence intensity, dose response (AID 624326).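 Note: rate of fluorescence rise from hydrolysis of a fluorogenic O-methyl fluorescein ester substrate.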 It is filed as functional.
The target of a further test is Paired box protein Pax-8 (Homo sapiens, UniProt Q06710). Briefly: PAX8 transcriptional activity inhibition in RMG-I – RMG-I cells, luciferase, cherry-pick, dose response (AID 687027).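 Note: luciferase reporter driven by Pax8 target thyroperoxidase promoter measured by SteadyGlo luminescence.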 Type of test: functional, cell-based.
Chain of Paired box protein Pax-8 (Q06710 whole entry): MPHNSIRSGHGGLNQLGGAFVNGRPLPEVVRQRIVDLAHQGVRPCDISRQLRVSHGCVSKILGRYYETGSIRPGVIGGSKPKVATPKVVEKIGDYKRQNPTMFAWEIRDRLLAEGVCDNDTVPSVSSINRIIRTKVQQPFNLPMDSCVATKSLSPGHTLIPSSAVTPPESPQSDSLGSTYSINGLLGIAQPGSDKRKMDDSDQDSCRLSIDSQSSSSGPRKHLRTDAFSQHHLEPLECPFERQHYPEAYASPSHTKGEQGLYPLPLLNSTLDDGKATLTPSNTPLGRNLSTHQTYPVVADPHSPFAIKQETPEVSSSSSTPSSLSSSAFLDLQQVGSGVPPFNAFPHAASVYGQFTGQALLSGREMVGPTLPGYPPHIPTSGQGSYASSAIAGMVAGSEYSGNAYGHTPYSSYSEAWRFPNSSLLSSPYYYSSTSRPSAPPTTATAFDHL
The nature of test [7]: general cell-killing toxicity readout – plate reader, dry powder samples, cytotoxicity control for PAX8 inhibitor project, dose response (AID 743021). Type of test: functional, cell-based.
Test [8] in a line: potency of ADAM10 substrate cleavage blockers – biochemical, QFRET, dose response (AID 743254).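 Note: ADAM10 enzyme with the DM2 quenched FRET peptide as substrate; EDANS fluorescence gain as the protease cuts the substrate; inhibitor potency against ADAM10 proteolytic activity.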
Test [9] deals with Disintegrin and metalloproteinase domain-containing protein 17 (Homo sapiens, UniProt P78536). The test is described as follows: inhibition of ADAM17 substrate cleavage – biochemical, quenched FRET substrate, counter-screen for ADAM10 exosite inhibitor project, dose response (AID 743253).
Chain of Disintegrin and metalloproteinase domain-containing protein 17 (P78536 whole entry, the tested form may be a part): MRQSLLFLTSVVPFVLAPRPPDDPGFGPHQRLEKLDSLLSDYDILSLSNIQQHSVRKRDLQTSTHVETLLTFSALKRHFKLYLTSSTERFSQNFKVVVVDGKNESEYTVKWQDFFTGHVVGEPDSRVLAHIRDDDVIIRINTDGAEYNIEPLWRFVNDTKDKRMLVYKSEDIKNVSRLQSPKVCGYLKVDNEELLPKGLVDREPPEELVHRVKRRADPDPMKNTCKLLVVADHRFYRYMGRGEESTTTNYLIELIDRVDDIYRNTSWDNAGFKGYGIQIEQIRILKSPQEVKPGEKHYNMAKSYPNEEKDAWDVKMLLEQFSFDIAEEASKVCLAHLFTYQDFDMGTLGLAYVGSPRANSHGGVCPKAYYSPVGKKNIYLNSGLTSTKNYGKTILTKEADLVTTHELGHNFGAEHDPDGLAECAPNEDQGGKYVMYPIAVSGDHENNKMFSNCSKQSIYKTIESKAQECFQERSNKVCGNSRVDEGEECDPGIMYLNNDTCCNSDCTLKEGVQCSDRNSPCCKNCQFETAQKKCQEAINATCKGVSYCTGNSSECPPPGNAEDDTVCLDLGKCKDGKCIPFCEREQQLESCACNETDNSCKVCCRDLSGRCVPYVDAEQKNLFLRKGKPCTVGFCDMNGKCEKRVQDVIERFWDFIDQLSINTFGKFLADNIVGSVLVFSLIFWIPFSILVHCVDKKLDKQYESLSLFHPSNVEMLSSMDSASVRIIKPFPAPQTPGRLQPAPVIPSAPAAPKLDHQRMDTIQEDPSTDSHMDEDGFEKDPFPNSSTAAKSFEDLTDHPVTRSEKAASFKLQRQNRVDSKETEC
Test [10] in a line: MITF Orthogonal Assay: SK-MEL-5 CTG Assay Measured in Cell-Based System Using Plate Reader - 2084-02_Inhibitor_Dose_DryPowder_Activity_Set7. Type of test: functional.
Test [11] in a line: MITF: Counter assay: A375 proliferation Measured in Cell-Based System Using Plate Reader - 2084-03_Inhibitor_Dose_DryPowder_Activity_Set8. The settings on record: A-375. Type of test: functional.
Test [12] can be described thus: inhibitors of TRPM1-promoter reporter in SK-MEL-5 – cell-based, luciferase, dry powder, set 8, MITF inhibitor project, dose response (AID 624430). Type of test: functional.
Test [13] can be described thus: kidney cell line viability loss – HEK293T, luminescence plate reader, powder samples, set 4, cytotoxicity control, dose response (AID 651863). Type of test: functional, cell-based. The settings on record: HEK293.
A short description of test [14]: A549 cell cytotoxicity, dose response, cytotoxicity control, plate reader, cherry-pick, antagonist series (AID 743412). Type of test: functional, cell-based.
A short description of test [15]: inhibition of bursicon-driven LGR2 cAMP signaling – cell-based, HEK293, CRE-luciferase reporter, cherry pick, dose response (AID 743342). Type of test: functional. (In general: A reporter such as luciferase makes a cellular process visible.)
Test [16] in a line: blockade of melanocortin 4 receptor signaling – cell-based, plate reader, cherry pick, counter-screen for LGR2 antagonist project, dose response (AID 743444).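 Note: transfected HEK 293 cells stimulated with alpha-MSH peptide; potency of inhibitors of the alpha-MSH evoked signal.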 Type of test: functional.
For another test, the target named is Albumin (Bos taurus, UniProt P02769). The test is described as follows: Counterscreen for inhibitors of T-cell receptor (TCR)-CD3 interaction: Fluorescence-based biochemical high throughput dose response assay to identify inhibitors of T-cell receptor (TCR)-CD3 interaction using a TAMRA-labeled BSA probe. Type of test: functional.
Chain of Albumin (P02769 whole entry): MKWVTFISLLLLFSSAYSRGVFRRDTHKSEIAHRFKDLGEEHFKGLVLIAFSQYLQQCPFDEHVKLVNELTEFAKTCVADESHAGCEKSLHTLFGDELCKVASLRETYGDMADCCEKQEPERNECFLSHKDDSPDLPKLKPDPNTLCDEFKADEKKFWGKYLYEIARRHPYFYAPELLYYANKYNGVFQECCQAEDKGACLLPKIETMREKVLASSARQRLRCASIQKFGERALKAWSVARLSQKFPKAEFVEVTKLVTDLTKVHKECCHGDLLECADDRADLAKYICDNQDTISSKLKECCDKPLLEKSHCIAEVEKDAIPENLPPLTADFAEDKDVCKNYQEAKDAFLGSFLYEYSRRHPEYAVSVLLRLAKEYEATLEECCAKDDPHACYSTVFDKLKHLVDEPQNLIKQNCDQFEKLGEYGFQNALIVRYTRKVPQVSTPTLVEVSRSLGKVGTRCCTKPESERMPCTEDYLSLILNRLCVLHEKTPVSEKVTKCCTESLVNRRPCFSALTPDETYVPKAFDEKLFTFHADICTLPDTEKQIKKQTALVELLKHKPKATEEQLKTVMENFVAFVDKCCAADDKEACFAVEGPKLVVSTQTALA
In another test the test system is HeLa. Briefly: viability loss in HeLa cells – cell-based, ATP luminescence, cherry-pick samples, cytotoxicity control, dose response (AID 687004). The note with it: Homo sapiens. Type of test: functional.
Test [17] in a line: intracellular Trypanosoma cruzi inhibitors in host cells – cell-based, plate reader, cherry-pick samples, set 3, dose response (AID 651818).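 Note: compounds incubated with infected cells for about four days.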 It is filed as functional.
Test [18] is described as follows: viability loss in HepG2 hepatoma cells – cell-based, cherry-picks, set 5, cytotoxicity control, dose response (AID 1053118). It is filed as functional.
A short description of test [19]: viability loss in HEK293 kidney cells – cell-based, cherry-picks, set 5, cytotoxicity control, dose response (AID 1053117). Type of test: functional.
The nature of test [20]: viability loss in A549 lung cancer cells – cell-based, cherry-picks, […], cytotoxicity control, dose response (AID 1053119). Type of test: functional.

This is an account of results in ChEMBL document CHEMBL1201862, “PubChem BioAssay data set” (2004).

Activity calls are given as the source filed them.

Consider `CCOc1ccccc1NC(=O)c1nc(S(=O)(=O)Cc2ccccc2)ncc1Cl`, for which the EC50 was 12.5 µM (active) in [1], 1.98 µM (active) at Streptokinase A and 13.7 µM (active) in the test on Streptococcus. The AC50 was 0.376 µM (active) in test [2]; 16.9 µM (active) in test [3]; 6.36 µM (active) in test [4]; 7.1 µM (active) at Paired box protein Pax-8; 21.7 µM (active) in test [7]. Besides, the 50% inhibitory concentration (IC50) at Fatty acid synthase [5] was 7.85 µM (active); at Fatty acid synthase [6] it was 7.5 µM (active).

`CCOC(=O)c1c(NC(=O)CN2C(=O)NC(C)(c3ccc(OC(F)F)cc3)C2=O)sc(C)c1C` (stereo not given): the IC50 in test [8] and in test [9] was > 69.5 µM (inactive) each time.

Turning to `O=C1C=C(Nc2ccccc2Cl)C(=O)c2ccccc21`, the half-maximal activity concentration (AC50) was 0.172 µM (active) in test [10], > 70 µM (inactive) in [11] and 5.41 µM (active) in test [12].

In the case of `Cc1cc(C)c(S(=O)(=O)Nc2ncnc3ccccc23)c(C)c1`, the AC50 in [13] was 44.2 µM (active).

Regarding `C[C@H](CO)N1C[C@H](C)[C@H](CN(C)C(=O)Nc2cccc3ccccc23)OCCCC[C@H](C)Oc2ccc(NC(=O)CCC(F)(F)F)cc2C1=O`, the results for the half-maximal activity concentration (AC50) in test [14], in [15] and in test [16] were 35 µM (active), 4.02 µM (active) and 2.95 µM (active), respectively.

As for `CC(C)C(=O)Nc1ccc(C(=O)NNC(=S)NC(=O)c2ccccc2[N+](=O)[O-])cc1`, the IC50 on Albumin is > 94.1 µM (inactive).

For the compound `Cc1cccc(N=C(S)NN(Cc2ccccc2)c2ccccc2)c1C`, the AC50 in the test with HeLa is > 52 µM (inactive).

For `C[C@H]1CN([C@@H](C)CO)C(=O)c2cccc(NC(=O)Nc3ccc(C(F)(F)F)cc3)c2O[C@@H]1CN(C)C(=O)Nc1cccc2ccccc12`, the AC50 in test [17] is 4.5 µM (active); in test [18], 25 µM (active); in [19] it was 19.8 µM (active); in [20] it was 29.7 µM (active).

The term EC50 denotes the concentration needed to bring the measured effect to its halfway point. One may read the AC50 as the concentration giving half of the maximal activity seen. In general, IC50 refers to the concentration needed to halve the response being measured.
